Measurements from patent US20060252918A1, “Use of hepatitis virus (hcv) p7 protein” (priority 2002, published 2006).

T1: HISp7 (HCV p7 with 6-HIS linker) (Hepatitis C virus genotype 1b, UniProt O92972)
T1 construct: the p7 protein of HCV is a 63 amino acid protein; GST (N, cleaved yes); made in house; host or cells: E. coli (pGEXHISp7 in pGEX4T1; DH5alpha is named for cloning)
T1 sequence (O92972 747-809 limits assumed): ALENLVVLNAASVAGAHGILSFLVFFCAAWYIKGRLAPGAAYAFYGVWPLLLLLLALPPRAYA

T2: HCV p7 (Hepatitis C virus genotype 1b, UniProt O92972)
T2 construct: the p7 protein of HCV is a 63 amino acid protein; expressed in transfected cells; host or cells: Vero cells (T7-driven expression, lipofectamine transfection)
T2 sequence (O92972 747-809 limits assumed): T1 sequence (O92972 747-809 limits assumed)

B1: hepatitis C virus (HCV) p7 protein (other)
chain: T1 sequence (O92972 747-809 limits assumed)
notes: mature; p7 expressed alone in hepatocyte-derived (HepG2) cells; The mammalian expression construct is not described; p7 is the 63-residue part of it

How the values were obtained:
[1] = target: T1, HISp7 (HCV p7 with 6-HIS linker); format: biochemical, hepatitis C virus 1B (J4 isolate)
HCV p7 = target: T2, HCV p7; format: cell-based
[2] = target: the molecule itself; assay: self-association in HepG2 cell membranes

Molecule | inhibition of ion channel formation by HISp7 [1] | inhibition of HA transport facilitated by HCV p7 (HCV p7) | binding result [2]
NC12CC3CC(CC(C3)C1)C2 [amantadine] | inhibits ion channel formation by HISp7 FIG. 9) in the micromolar range | HA transport is inhibited | –
B1 | – | – | binds
